Assay [1] deals with T1, catalytic domain of human Bub1 (amino acids 704-1085) (Homo sapiens, UniProt O43683).
T1 construct: catalytic domain of human Bub1 (amino acids 704-1085); His6 (N); made in house; host or cells: Hi5 insect cells
Briefly: Bub1 kinase assay (TR-FRET). It counts as biochemical. How it is done: To this end, 100-fold concentrated compound solutions (in DMSO) were previously prepared by serial dilution (1:3.4) of 2 mM stocks in a clear low volume 384-well source microtiter plate (Greiner Bio-One, Frickenhausen, Germany), from which 50 nl of compounds were transferred into a black low volume test microtiter plate from the same supplier. […] The resulting mixture (5 μL final volume) was incubated at […] during 60 min., and the reaction was stopped by the addition of 5 μL of an aqueous EDTA-solution (50 mM EDTA, in 100 mM HEPES pH 7.5 and 0.2% (w/v) bovine serum albumin) which also contained the TR-FRET detection reagents (0.2 μM streptavidin-XL665 [Cisbio Bioassays, Codolet, France] and 1 nM anti-phosho-Serine antibody [Merck Millipore, cat. #35-001] and 0.4 nM LANCE EU-W1024 labeled anti-mouse IgG antibody [Perkin-Elmer, product no. AD0077, alternatively a Terbium-cryptate-labeled anti-mouse IgG antibody from Cisbio Bioassays can be used]). The stopped reaction mixture was further incubated 1 h at 22° C. in order to allow the formation of complexes between peptides and detection reagents. Subsequently, the amount of product was evaluated by measurement of the resonance energy transfer from the Eu-chelate-antibody complex recognizing the Phosphoserine residue to the streptavidin-XL665 bound to the biotin moiety of the peptide. […] IC50 values were calculated by fitting the normalized inhibition data to a 4-parameter logistic equation (Minimum, Maximum, IC50, Hill; Y=Max+(Min−Max)/(1+(X/IC50)Hill)).
(In TR-FRET formats the signal depends on donor and acceptor labels being close together.)

The subject of assay [2] is HeLa cell line. Briefly: Proliferation assay (HeLa cell line). It counts as cell-based. The settings on record: Homo sapiens, 96 h, read-out: Biological Assay 2: Proliferation assay (HeLa cell line) median IC50. How it is done: Cultivated tumor cells (cells were ordered from ATCC, except HeLa-MaTu and HeLa-MaTu-ADR, which were ordered from EPO-GmbH, Berlin) were plated at a density of 1000 to 5000 cells/well, depending on the growth rate of the respective cell line, in a 96-well multititer plate in 200 μL of their respective growth medium supplemented 10% fetal calf serum. After 24 hours, the cells of one plate (zero-point plate) were stained with crystal violet (see below), while the medium of the other plates was replaced by fresh culture medium (200 μL), to which the test substances were added in various concentrations (0 μM, as well as in the range of 0.001-10 μM; the final concentration of the solvent dimethyl sulfoxide was 0.5%). The cells were incubated for 4 days in the presence of test substances. Cell proliferation was determined by staining the cells with crystal violet: the cells were fixed by adding 20 μl/measuring point of an 11% glutaric aldehyde solution for 15 minutes at room temperature. After three washing cycles of the fixed cells with water, the plates were dried at room temperature. The cells were stained by adding 100 μl/measuring point of a 0.1% crystal violet solution (pH 3.0). After three washing cycles of the stained cells with water, the plates were dried at room temperature. The dye was dissolved by adding 100 μl/measuring point of a 10% acetic acid solution. Absorption was determined by photometry at a wavelength of 595 nm. The change of cell number, in percent, was calculated by normalization of the measured values to the absorption values of the zero-point plate (=0%) and the absorption of the untreated (0 μm) cells (=100%). The IC50 values were determined by means of a 4 parameter fit using the company's own software.

Where [3] appears, read: TR-FRET, 10 μM ATP, 1 μM peptide substrate, read-out: Biological Assay 1: Bub1 kinase assay median IC50.

Read-outs that look alike come from different tables or passages of the source.

T1 sequence (O43683 704-1085): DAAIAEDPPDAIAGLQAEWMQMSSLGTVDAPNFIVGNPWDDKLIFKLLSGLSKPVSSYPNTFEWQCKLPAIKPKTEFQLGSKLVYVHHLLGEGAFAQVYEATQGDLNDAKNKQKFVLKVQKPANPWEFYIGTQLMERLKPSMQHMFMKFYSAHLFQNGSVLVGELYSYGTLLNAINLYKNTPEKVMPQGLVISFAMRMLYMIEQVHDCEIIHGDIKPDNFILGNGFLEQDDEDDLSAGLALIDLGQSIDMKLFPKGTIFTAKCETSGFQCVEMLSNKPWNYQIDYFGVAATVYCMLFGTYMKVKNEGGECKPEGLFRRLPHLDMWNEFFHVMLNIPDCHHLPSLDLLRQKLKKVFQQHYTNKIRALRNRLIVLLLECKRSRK

As for `CCOc1cc(F)c(Cn2nc(-c3nc(N)c(NC(=O)COC)c(Nc4ccncn4)n3)c3ccccc32)c(F)c1` [Example 2-3-14, N-{4-amino-2-[1-(4-ethoxy-2,6-difluorobenzyl)-1H-indazol-3-yl]-6-(pyrimidin-4-ylamino)pyrimidin-5-yl}-2-methoxyacetamide], the results for the IC50 in assay [1] (setting [3]) and in assay [2] were 7.9 nM and at least 10000 nM, respectively.
Regarding `CCOc1cc(F)c(Cn2nc(-c3nc(N)c(NS(=O)(=O)CC)c(Nc4ccncc4)n3)c3ccccc32)c(F)c1` [Example 2-3-15, N-{4-amino-2-[1-(4-ethoxy-2,6-difluorobenzyl)-1H-indazol-3-yl]-6-(pyridin-4-ylamino)pyrimidin-5-yl}ethanesulfonamide], the figures for the IC50 in assay [1] (setting [3]) and in assay [2] were 5.8 nM and at least 10000 nM, respectively.
The like results for `CCOc1cc(F)c(Cn2nc(-c3nc(N)c(NS(=O)(=O)C(F)(F)F)c(Nc4ccncc4)n3)c3ccccc32)c(F)c1` [Example 2-3-16, N-{4-amino-2-[1-(4-ethoxy-2,6-difluorobenzyl)-1H-indazol-3-yl]-6-(pyridin-4-ylamino)pyrimidin-5-yl}-1,1,1-trifluoromethanesulfonamide] were, in that order, 8.7 nM and at least 10000 nM.
In the case of `CCOc1cc(F)c(Cn2nc(-c3nc4c(c(Nc5ccncc5)n3)OCC(=O)N4)c3ccccc32)c(F)c1` [Example 2-3-17, 2-[1-(4-ethoxy-2,6-difluorobenzyl)-1H-indazol-3-yl]-4-(pyridin-4-ylamino)-6H-pyrimido[5,4-b][1,4]oxazin-7(8H)-one], the IC50 was determined as 8 nM in assay [1] (setting [3]) and 1200 nM in assay [2].
For `CCOc1cc(F)c(Cn2nc(-c3nc4c(c(Nc5ccncn5)n3)OCC(=O)N4)c3ccccc32)c(F)c1` [Example 2-3-18, 2-[1-(4-ethoxy-2,6-difluorobenzyl)-1H-indazol-3-yl]-4-(pyrimidin-4-ylamino)-6H-pyrimido[5,4-b][1,4]oxazin-7(8H)-one] the same measures were 19 nM and at least 10000 nM.
Consider `CCOc1cc(F)c(Cn2nc(-c3nc(Nc4ccncc4)c(N4CCOCC4)c(Nc4ccncc4)n3)c3ccccc32)c(F)c1` [Example 2-4-3, 2-[1-(4-ethoxy-2,6-difluorobenzyl)-1H-indazol-3-yl]-5-(morpholin-4-yl)-N,N′-di(pyridin-4-yl)pyrimidine-4,6-diamine], for which the IC50 was 640 nM in assay [1] and 3400 nM in assay [2] (cervical cancer, 4 days incubation, crystal violet staining).
As to `CCOc1cc(F)c(Cn2nc(-c3nc(Nc4ccncc4)c(NC(=O)COC)c(Nc4ccncc4)n3)c3ccccc32)c(F)c1` [Example 2-4-8, N-{2-[1-(4-ethoxy-2,6-difluorobenzyl)-1H-indazol-3-yl]-4,6-bis(pyridin-4-ylamino)pyrimidin-5-yl}-2-methoxyacetamide], the IC50 is 220 nM in assay [1] (setting [3]) and 2500 nM in assay [2].
For `CCOc1cc(F)c(Cn2nc(-c3nc(Nc4ccncn4)c(NC(=O)COC)c(Nc4ccncn4)n3)c3ccccc32)c(F)c1` [Example 2-4-9, N-{2-[1-(4-ethoxy-2,6-difluorobenzyl)-1H-indazol-3-yl]-4,6-bis(pyrimidin-4-ylamino)pyrimidin-5-yl}-2-methoxyacetamide] the same measures were 22 nM and at least 10000 nM.
For `CCOc1cc(F)c(Cn2nc(-c3nc(Nc4ccncc4)c(NS(=O)(=O)CC)c(Nc4ccncc4)n3)c3ccccc32)c(F)c1` [Example 2-4-10, N-{2-[1-(4-ethoxy-2,6-difluorobenzyl)-1H-indazol-3-yl]-4,6-bis(pyridin-4-ylamino)pyrimidin-5-yl}ethanesulfonamide], the IC50 in assay [1] (setting [3]) is 710 nM; in assay [2] it was at least 10000 nM.
The like results for `CCOc1cc(F)c(Cn2nc(-c3nc(N)c(OCCO)c(Nc4ccncc4)n3)c3ccccc32)c(F)c1` [Example 2-5-1, 2-({4-amino-2-[1-(4-ethoxy-2,6-difluorobenzyl)-1H-indazol-3-yl]-6-(pyridin-4-ylamino)pyrimidin-5-yl}oxy)ethanol] were, in that order, 4.1 nM and 3500 nM.

These data come from patent US20170283396A1, “DIAMINOHETEROARYL SUBSTITUTED INDAZOLES” (Bayer Pharma Aktiengesellschaft, priority 2013, published 2017).
